Experimental data as given in article PMC6667648 (Frontiers in Microbiology, 2019).
Values after ≈ are worked out from the molar mass of the structure shown. Where a SMILES comes first, the peptide text is derived from it. Bridges are numbered along the chain shown (N, C = ends).

Columns and labels:
[1] = pooled normal human serum, 200 μg/mL, 72 h, 37°C, LC-MS/MS, triplicate
[2] = tested on: P. aeruginosa P14 biofilm; format: cell-based, Pseudomonas aeruginosa; conditions: CFU count
K. pneumonia ATCC 10031 = assay: microbe, parasite or virus in culture; format: cell-based, Klebsiella pneumoniae; conditions: ATCC 10031, 24 h
Procedure: (§1) Strains were obtained from American Type Culture Collection (ATCC, Manassas, VA) or the clinical isolate collection at Trideum Biosciences (Frederick, MD, USA). Bioluminescence strains of P. aeruginosa 19660, transfected with the Xen5 luciferase gene, and S. aureus ATCC® 49525™ (Wright), transfected with the Xen36 luciferase gene, were obtained from Perkin Elmer (Hopkinton, MA).
(§2) A single colony was aseptically picked from an agar overlay and released in 25–30 mL of pre-warmed trypticase soy broth in a culture flask. Each culture was incubated overnight in a 37°C incubator. […] Pathogen growth was measured by absorbance at 600 nm. Four replicas were included for each test agent concentration. […]

K. pneumonia 6069 = assay: microbe, parasite or virus in culture; format: cell-based, Klebsiella pneumoniae; conditions: 24 h
Procedure: as §1, §2

K. pneumonia 6066 = assay: microbe, parasite or virus in culture; format: cell-based, Klebsiella pneumoniae; conditions: 24 h
Procedure: as §1, §2

C. albicans Y-6359 = format: cell-based; conditions: 24-h incubation, mean of 3 replicates from 2 independent experiments
Procedure: as §1, §2

C. albicans Y-326 = format: cell-based; conditions: 24-h incubation, mean of 3 replicates from 2 independent experiments
Procedure: as §1, §2

[3] = tested on: 6 hr MRSA ATCC 1556 biofilm; format: cell-based, Staphylococcus aureus; conditions: preformed (6 h) MRSA biofilm, 16 h treatment, CFU count, three technical replicates
human red blood cells = assay: Human hemolysis assay; format: cell-based; conditions: 30 min, 37°C, absorbance 540 nm, duplicate
Procedure: […]. Distilled water was used as a control for 100% hemolysis with the background level of absorbance being water only (Stasiuk et al., [2004]). The percent hemolysis was calculated as (test wellAbs – backgroundAbs) / (100% lysisAbs – backgroundAbs). Experiments were run in duplicate.

MRSA 6313 = assay: microbe, parasite or virus in culture; format: cell-based, Staphylococcus aureus; conditions: MRSA 6313; 24-h incubation; mean of 3 replicates from 2 independent experiments
Summary of the method: (§3)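 Each concentration of test agent was run in quadruplicate, and microbial growth was determined photometrically at 600 nm. Starter cultures came from single colonies incubated overnight at 37°C in pre-warmed trypticase soy broth.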

S. aureus B-767 = assay: microbe, parasite or virus in culture; format: cell-based, Staphylococcus aureus; conditions: B-767, 24 h
Summary of the method: as §3

For `CC[C@H](C)[C@@H]1NC(=O)CNC(=O)[C@H](CCCCN)NC(=O)[C@H](Cc2ccc(O)cc2)NC(=O)[C@@H]2CSSC[C@H](NC1=O)C(=O)N[C@@H](Cc1ccccc1)C(=O)N[C@@H](CCCCN)C(=O)N[C@@H](CCCCN)C(=O)N[C@H](C(=O)N[C@@H](CCCCN)C(N)=O)CSSC[C@H](NC(=O)[C@H](Cc1ccccc1)NC(=O)[C@@H](N)CCCNC(=N)N)C(=O)N[C@@H](Cc1c[nH]c3ccccc13)C(=O)N[C@@H](CCCCN)C(=O)N[C@@H](C(C)C)C(=O)N2` [RP557] (H-RFCWKVCYKGICFKKCK-NH2; disulfide 3-16, 7-12), the “Degradation in human serum” value [1] was “did not degrade”, the “EC50, biofilm” value [2] was 32 µg/mL (≈ 15 µM) and the “Minimum Inhibitory Concentration (MIC)” value (K. pneumonia ATCC 10031) was 4.0 [8] μM. The “Minimum Inhibitory Concentration (MIC)” value (K. pneumonia 6069) was 2.0 [4] μM, the “Minimum Inhibitory Concentration (MIC)” value (K. pneumonia 6066) was 4.0 [8] μM and the “Minimum Inhibitory Concentration (MIC)” value (C. albicans Y-6359) was 2.0 [4] μM. The “Minimum Inhibitory Concentration (MIC)” value (C. albicans Y-326) was 8.0 [16] μM, the “EC90, biofilm CFU” value [3] was 6 µg/mL (≈ 2.81 µM) and the “Minimum hemolytic concentration required to cause 10% hemolysis, MHC” value (human red blood cells) was 128 µg/mL. The “Minimum Inhibitory Concentration (MIC)” value (MRSA 6313) was 2.0 [4] μM and the “Minimum Inhibitory Concentration (MIC)” value (S. aureus B-767) was 2.0 [4] μM.
